Measurements: paper PMC11274883, “Anticancer Effect of Pt^[sequence], Pt^II5MESS, Pt^II56MESS and Their Platinum(IV)-Dihydroxy Derivatives against Triple-Negative Breast Cancer and Cisplatin-Resistant Colorectal Cancer” (Cancers, 2024)

Legend:
Format in all cases: cell-based
[1] = test system: ADDP; test: WST-1 cytotoxicity, 72 h
Description: (§1) Cells were seeded in 96-well flat-bottom culture plates at a concentration of 1000 cells per well. […] After 72 h, the medium was removed and replaced with new medium. The cell viability reagent WST-1 (10 µL, Roche Diagnostics, Indianapolis, IN, USA) was added to each well. After an hour, the absorbance was measured at 450 nm using a versatile microplate reader (Bio-strategy, Campbellfield, VIC, Australia). Three separate experiments were performed, each with n = 3 replicates. GraphPad prism 10 was used to calculate apparent IC50 values using the nonlinear regression model Y = Bottom + (Top-Bottom)/(1 + 10^(X-LogIC50)) where Top and bottom are plateaus in the y-axis (% survival).

[2] = test system: MCF−7; test: WST-1 cytotoxicity, 72 h
Description: as §1

[3] = test system: MDA−MB−231; test: WST-1 cytotoxicity, 72 h
Description: as §1

[4] = test system: HT29 cells; test: Cellular uptake of Pt by ICP-MS; conditions: for Intracellular Concentration: HT29, 3 µM; for Intracellular/extracellular ratio: HT29, extracellular 3 µM
Description: (§2) A final concentration of 10^6 cells/well of MDA−MB−231 and HT29 cells were seeded in 6-well plates and incubated overnight to adhere. The cells were then treated with a final concentration of 3 µM of either Pt^II or Pt^IV complexes. After 0, 0.5, 1, 3, 6, 12, 24 or 30 h, the medium was removed, and the cells were washed three times with cold PBS and allowed to dry. Then, 400 µL of 69% HNO3 (Baseline grade nitric acid with PPB level reported impurities, Seastar Chemicals, Sidney, BC, Canada) was added to each well for 90 min to ensure complete digestion. […] Iridium 193 (^193Ir) was mixed online and introduced into the ICP-MS to check uptake efficiency and matrix interference. All ICP-MS parameters are described in Table S2 and elaborated in Method S3. The results represent an average of three different experiments run in triplicate (±SEM) and expressed as nmol/10^6 cells or µM/cell. Quantification of the cellular uptake of Pt was based on external standards (Certified Standard from Sigma-Aldrich, VIC, Australia) containing Internal standard Ir.
(§3) Method S3. Cellular Uptake of Platinum(II) and (IV) complexes
(§4) A final concentration of 10^6 cells/well of MDA−MB−231 and HT29 cells were seeded in 6-well plates and incubated overnight to adhere. The cells were then treated with a final concentration of 3 µM of either PtII or PtIV complexes. After 0, 0.5, 1, 3, 6, 12, 24 or 30 h, the medium was removed, and the cells were washed three times with cold PBS and allowed to dry. Then, 400 µL of 69% HNO3 (Baseline grade nitric acid with Instrument Quality Grade Nitric acid with ppb level reported impurities, Seastar Chemicals, Sidney, Canada) was added to each well for 90 mins to ensure complete digestion. The digests were then moved to trace -metal free 15 mL centrifuge tubes […]
(§5) concentration of 3.5-4%. Iridium 193 (193Ir), selected as internal standard, has similar first ionisation potential and mass to Platinum 195 (195Pt). A concentration of 50 ppb 193Ir in 2% HNO3 solution was chosen for the Perkin Elmer NexION® Inductively Coupled Plasma Mass Spectrometer (ICP-MS) as it produced a steady state signal intensity of 600-800K counts per second. Mixing and injection of sample and internal standard solution was carried out using an ESI 7 port Valve system (Elemental Scientific, USA). A high-quality Solvent Flex 2 stop pump with 0.38 mm ID tubing was used in conjunction with the ICP-MS’s Peristaltic pump set at 20 […]
(§6) standard both, at 0.25 mL/min) being 0.5 mL/min. The ICP-MS was tuned to high sensitivity settings to facilitate detection of low Pt concentrations in samples. This was done by adjusting the nebuliser gas flow between […] to achieve maximum Indium 115 intensity whilst maintaining an acceptable average oxide and doubly charged ratio of 1.64-2.24% and 1.17-1.69% respectively. The analysis method was set to peak hopping mode with a dwell time of […] and 45 sweeps through the mass spectrum per sample read. […]
(§7) peak integration time of 4500 milliseconds and enabled the collection of numerous data points for peak integration thereby increasing accuracy. The ICP-MS was tuned daily, and its performance optimised to a set of suppliers recommended settings. Analysis was only carried out when optimal oxide and doubly charged ratios with high ionic sensitivity was achieved. All ICP-MS parameters are described in Table S2. The results represent an average of three different experiments run in triplicates (± SEM) and expressed as nmol/106 cells or µM/cell. Quantification of the cellular uptake of Pt was based on external standards (Certified Standard from Sigma-Aldrich NSW, Australia) containing Internal standard Ir. […]

[5] = test system: MDA−MB−231 cells; test: Cellular uptake of Pt by ICP-MS; conditions: for Intracellular Concentration: MDA−MB−231, 3 µM; for Intracellular/extracellular ratio: MDA−MB−231, extracellular 3 µM
Description: as §2, §3, §4, §5, §6, §7

[6] = test system: HT29 cells; test: TMRE mitochondrial membrane potential assay; conditions: complexes at IC50, FCCP 20 µM
How it was run: (§8)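 Cells treated with each complex at its IC50 concentration for 24, 48 or 72 h, then stained with 1 µM TMRE for 30 min and washed before fluorescence scanning. Three independent experiments in triplicate.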

[7] = test system: MDA−MB−231 cells; test: TMRE mitochondrial membrane potential assay; conditions: complexes at IC50, FCCP 20 µM
How it was run: as §8

Q: For `N[C@H]1CCCC[C@@H]1N.O=[N+]([O-])[O-].O=[N+]([O-])[O-].[Pt+2].c1cnc2c(c1)ccc1cccnc12` [[Pt(1,10-phenanthroline)(1S,2S-diaminocyclohexane)](NO3)2], which “potency relative to cisplatin” value ([1]; ADDP, 72 h) is on record?
A: The value was 44 fold.

Q: What about the IC50 ([1]; ADDP, 72 h, mean ± SEM) of the same molecule?
A: The IC50 was 2550 ± 1480 nM.

Q: And the “Selective cytotoxicity index (SCI)” value ([1]; IC50 MCF10A/IC50 ADDP)?
A: Its value is 1.37.

Q: And the “Selective cytotoxicity index (SCI)” value ([2]; IC50 MCF10A/IC50 MCF−7)?
A: The value was 1.91.

Q: And the “potency relative to cisplatin” value ([2]; MCF−7, 72 h)?
A: Its value is 18 fold.

Q: What about the IC50 ([2]; MCF−7, 72 h, mean ± SEM) of the same molecule?
A: The IC50 was 1830 ± 2120 nM.

Q: And the “Selective cytotoxicity index (SCI)” value ([3]; IC50 MCF10A/IC50 MDA−MB−231)?
A: Its value is 3.45.

Q: What about the “potency relative to cisplatin” value ([3]; MDA−MB−231, 72 h) of the same molecule?
A: Its value is 13 fold.

Q: And the IC50 ([3]; MDA−MB−231, 72 h, mean ± SEM)?
A: The IC50 was 1010 ± 1360 nM.

Q: What about the “Intracellular Concentration” value ([4]; 0 h) of the same molecule?
A: The value was 0.61 nmol/10^6 cells.

Q: What about the “Intracellular Concentration” value ([4]; 0.5 h) of the same molecule?
A: The value was 0.85 nmol/10^6 cells.

Q: What about the “Intracellular Concentration” value ([4]; 1 h) of the same molecule?
A: Its value is 0.72 nmol/10^6 cells.

Q: And the “Intracellular Concentration” value ([4]; 3 h)?
A: Its value is 2.77 nmol/10^6 cells.

Q: What about the “Intracellular Concentration” value ([4]; 6 h) of the same molecule?
A: The value was 5.95 nmol/10^6 cells.

Q: And the “Intracellular Concentration” value ([4]; 12 h)?
A: The value was 12.59 nmol/10^6 cells.

Q: And the “Intracellular Concentration” value ([4]; 24 h)?
A: Its value is 15.26 nmol/10^6 cells.

Q: What about the “Intracellular Concentration” value ([4]; 30 h) of the same molecule?
A: Its value is 16.99 nmol/10^6 cells.

Q: And the Intracellular/extracellular ratio ([4]; 0 h)?
A: Its Intracellular/extracellular ratio is 95.39.

Q: And the Intracellular/extracellular ratio ([4]; 0.5 h)?
A: The Intracellular/extracellular ratio was 133.55.

Q: What about the Intracellular/extracellular ratio ([4]; 1 h) of the same molecule?
A: Its Intracellular/extracellular ratio is 112.44.

Q: And the Intracellular/extracellular ratio ([4]; 3 h)?
A: The Intracellular/extracellular ratio was 435.59.

Q: And the Intracellular/extracellular ratio ([4]; 6 h)?
A: Its Intracellular/extracellular ratio is 935.29.

Q: What about the Intracellular/extracellular ratio ([4]; 12 h) of the same molecule?
A: Its Intracellular/extracellular ratio is 1979.17.

Q: And the Intracellular/extracellular ratio ([4]; 24 h)?
A: The Intracellular/extracellular ratio was 2397.59.

Q: What about the “Intracellular Concentration” value ([5]; 0 h) of the same molecule?
A: The value was 0.40 nmol/10^6 cells.

Q: And the “Intracellular Concentration” value ([5]; 0.5 h)?
A: Its value is 0.46 nmol/10^6 cells.

Q: And the “Intracellular Concentration” value ([5]; 1 h)?
A: Its value is 0.80 nmol/10^6 cells.

Q: What about the “Intracellular Concentration” value ([5]; 3 h) of the same molecule?
A: Its value is 0.81 nmol/10^6 cells.

Q: And the “Intracellular Concentration” value ([5]; 6 h)?
A: Its value is 1.03 nmol/10^6 cells.

Q: What about the “Intracellular Concentration” value ([5]; 12 h) of the same molecule?
A: Its value is 2.59 nmol/10^6 cells.

Q: What about the “Intracellular Concentration” value ([5]; 24 h) of the same molecule?
A: Its value is 3.01 nmol/10^6 cells.

Q: What about the “Intracellular Concentration” value ([5]; 30 h) of the same molecule?
A: Its value is 4.79 nmol/10^6 cells.

Q: And the Intracellular/extracellular ratio ([5]; 0 h)?
A: The Intracellular/extracellular ratio was 63.45.

Q: And the Intracellular/extracellular ratio ([5]; 0.5 h)?
A: The Intracellular/extracellular ratio was 72.01.

Q: What about the Intracellular/extracellular ratio ([5]; 1 h) of the same molecule?
A: The Intracellular/extracellular ratio was 126.21.

Q: And the Intracellular/extracellular ratio ([5]; 3 h)?
A: Its Intracellular/extracellular ratio is 127.55.

Q: And the Intracellular/extracellular ratio ([5]; 6 h)?
A: Its Intracellular/extracellular ratio is 161.09.

Q: What about the Intracellular/extracellular ratio ([5]; 12 h) of the same molecule?
A: Its Intracellular/extracellular ratio is 407.32.

Q: What about the Intracellular/extracellular ratio ([5]; 24 h) of the same molecule?
A: The Intracellular/extracellular ratio was 473.33.

Q: What about the Intracellular/extracellular ratio ([5]; 30 h) of the same molecule?
A: Its Intracellular/extracellular ratio is 752.93.

Q: And the “MtMp (mitochondrial membrane potential)” value ([6]; HT29, 24 h)?
A: The value was 321.85 RFU.

Q: And the “MtMp (mitochondrial membrane potential)” value ([6]; HT29, 48 h)?
A: Its value is 256.63 RFU.

Q: And the “MtMp (mitochondrial membrane potential)” value ([6]; HT29, 72 h)?
A: Its value is 236.73 RFU.

Q: What about the “MtMp (mitochondrial membrane potential)” value ([7]; MDA−MB−231, 24 h) of the same molecule?
A: The value was 258.17 RFU.

Q: What about the “MtMp (mitochondrial membrane potential)” value ([7]; MDA−MB−231, 48 h) of the same molecule?
A: The value was 218.19 RFU.

Q: What about the “MtMp (mitochondrial membrane potential)” value ([7]; MDA−MB−231, 72 h) of the same molecule?
A: The value was 169.95 RFU.
